Tests used:
Candida tropicalis = assay: MIC 80 microdilution, clinical yeast isolates; format: cell-based
Protocol: (§1) MICs of Ga-UPI against selected clinical yeast isolates. Growth was
(§2) scored after 24 and 48 hours of incubation.

Cryptococcus neoformans = assay: MIC 80 microdilution, clinical yeast isolates; format: cell-based
Protocol: as §1, §2

Candida glabrata = assay: MIC 80 microdilution, clinical yeast isolates; format: cell-based
Protocol: as §1, §2

Candida albicans = assay: MIC 80 microdilution, clinical yeast isolates; format: cell-based
Protocol: as §1, §2

Y. enterocolitica = assay: Minimal bactericidal concentration; format: cell-based; details: reduces plating efficiency more than 99.9%; minimal exposure to light
Candida krusei = assay: MIC 80 microdilution, clinical yeast isolates; format: cell-based
M. smegmatis = assay: Minimal bactericidal concentration; format: cell-based, Mycobacterium smegmatis; details: reduces plating efficiency more than 99.9%; minimal exposure to light
Candida pillosus = assay: MIC 80 microdilution, clinical yeast isolates; format: cell-based
bacteria = format: cell-based
yeasts = assay: Yeast growth inhibition; format: cell-based
S. aureus = assay: Minimal bactericidal concentration; format: cell-based, Staphylococcus aureus; details: reduces plating efficiency more than 99.9%; minimal exposure to light
Method in brief: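 Bacteria exposed to porphyrin derivatives above MIC as in the MIC assay, then plated on LB or LB+Tween 80 agar. MBC taken as the concentration reducing plating efficiency by more than 99.9%; light exposure kept minimal.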

O=C(O)CCC1=C(CC(=O)O)C2=NC1=Cc1c(CC(=O)O)c(CCC(=O)O)c3[n]1[Ga]([Cl])[n]1c(c(CCC(=O)O)c(CC(=O)O)c1=CC1=NC(=C3)C(CC(=O)O)=C1CCC(=O)O)=C2 [Ga-UPI, Ga-uroporphyrin I]
MIC 80 (Candida tropicalis; 97-054, 24 hours): 16 µg/mL
MIC 80 (Candida tropicalis; 97-054, 48 hours): 32 µg/mL
MIC 80 (Candida tropicalis; 97-055, 24 hours): 8 µg/mL
MIC 80 (Candida tropicalis; 97-055, 48 hours): 16 µg/mL
MIC 80 (Cryptococcus neoformans; 97-044, 24 hours): 16 µg/mL
MIC 80 (Cryptococcus neoformans; 97-044, 48 hours): 16 µg/mL
MIC 80 (Cryptococcus neoformans; 97-045, 24 hours): 16 µg/mL
MIC 80 (Cryptococcus neoformans; 97-045, 48 hours): 32 µg/mL
MIC 80 (Cryptococcus neoformans; 97-046, 24 hours): 16 µg/mL
MIC 80 (Cryptococcus neoformans; 97-046, 48 hours): 16 µg/mL
MIC 80 (Cryptococcus neoformans; 97-047, 24 hours): 8 µg/mL
MIC 80 (Cryptococcus neoformans; 97-047, 48 hours): 16 µg/mL
MIC 80 (Cryptococcus neoformans; 97-048, 24 hours): 16 µg/mL
MIC 80 (Cryptococcus neoformans; 97-048, 48 hours): 16 µg/mL
MIC 80 (Candida glabrata; 97-049, 24 hours): 8 µg/mL
MIC 80 (Candida glabrata; 97-049, 48 hours): 32 µg/mL
MIC 80 (Candida glabrata; 97-050, 24 hours): 8 µg/mL
MIC 80 (Candida glabrata; 97-050, 48 hours): 16 µg/mL
MIC 80 (Candida glabrata; 97-051, 24 hours): 8 µg/mL
MIC 80 (Candida glabrata; 97-051, 48 hours): 32 µg/mL
MIC 80 (Candida glabrata; 97-052, 24 hours): 8 µg/mL
MIC 80 (Candida glabrata; 97-052, 48 hours): 32 µg/mL
MIC 80 (Candida glabrata; 97-053, 24 hours): 8 µg/mL
MIC 80 (Candida glabrata; 97-053, 48 hours): 16 µg/mL
MIC 80 (Candida albicans; 97-010, 24 hours): 2 µg/mL
MIC 80 (Candida albicans; 97-010, 48 hours): 8 µg/mL
MIC 80 (Candida albicans; 97-012, 24 hours): 2 µg/mL
MIC 80 (Candida albicans; 97-012, 48 hours): 8 µg/mL
MIC 80 (Candida albicans; 97-014, 24 hours): 2 µg/mL
MIC 80 (Candida albicans; 97-014, 48 hours): 8 µg/mL
MIC 80 (Candida albicans; 97-015, 24 hours): 2 µg/mL
MIC 80 (Candida albicans; 97-015, 48 hours): 8 µg/mL
MIC 80 (Candida albicans; 97-031, 24 hours): 2 µg/mL
MIC 80 (Candida albicans; 97-031, 48 hours): 16 µg/mL
Minimal bactericidal concentration (MBC) (Y. enterocolitica): 10
MIC 80 (Candida krusei; 97-058, 24 hours): 1 µg/mL
MIC 80 (Candida krusei; 97-058, 48 hours): 4 µg/mL
MIC 80 (Candida krusei; 97-059, 24 hours): 2 µg/mL
MIC 80 (Candida krusei; 97-059, 48 hours): 8 µg/mL
MIC 80 (Candida krusei; ATCC-6258, 24 hours): 1 µg/mL
MIC 80 (Candida krusei; ATCC-6258, 48 hours): 2 µg/mL
Minimal bactericidal concentration (MBC) (M. smegmatis): 10
MIC 80 (Candida pillosus; 97-056, 24 hours): 1 µg/mL
MIC 80 (Candida pillosus; 97-056, 48 hours): 2 µg/mL
MIC 80 (Candida pillosus; 97-057, 24 hours): 2 µg/mL
MIC 80 (Candida pillosus; 97-057, 48 hours): 8 µg/mL
antibacterial activity (bacteria): seriously limited in their antibacterial activities
inhibition of growth of yeast (yeasts): able to inhibit growth of yeast
Minimal bactericidal concentration (MBC) (S. aureus): 10

From patent US6066628A, “Non-iron metalloporphyrins and methods of use” (Emory University, priority 1998, dated 2000)
